The target in this assay is T1, human NaPi-IIb (Homo sapiens, UniProt O95436).
T1 construct: expressed in transfected cells
T1 sequence (O95436 1-690): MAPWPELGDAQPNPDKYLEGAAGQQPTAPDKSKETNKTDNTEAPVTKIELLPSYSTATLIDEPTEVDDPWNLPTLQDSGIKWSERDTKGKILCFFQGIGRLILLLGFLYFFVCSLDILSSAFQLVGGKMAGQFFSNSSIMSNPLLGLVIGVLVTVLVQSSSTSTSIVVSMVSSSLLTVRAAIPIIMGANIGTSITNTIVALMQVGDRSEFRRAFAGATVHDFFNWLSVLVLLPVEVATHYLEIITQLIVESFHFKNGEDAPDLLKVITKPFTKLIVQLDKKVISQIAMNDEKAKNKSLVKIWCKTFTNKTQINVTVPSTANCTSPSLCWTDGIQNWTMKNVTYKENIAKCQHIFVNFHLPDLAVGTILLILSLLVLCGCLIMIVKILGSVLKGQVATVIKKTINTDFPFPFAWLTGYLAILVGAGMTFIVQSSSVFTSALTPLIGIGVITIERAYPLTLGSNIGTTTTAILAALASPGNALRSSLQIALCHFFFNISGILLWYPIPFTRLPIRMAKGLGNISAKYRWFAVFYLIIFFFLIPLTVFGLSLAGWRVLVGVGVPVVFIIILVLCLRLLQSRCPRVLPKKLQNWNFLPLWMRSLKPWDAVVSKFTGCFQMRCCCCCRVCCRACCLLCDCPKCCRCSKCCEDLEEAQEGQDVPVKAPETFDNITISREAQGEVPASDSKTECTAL
Kind of assay: Inhibitory effect on 33PO4 uptake into human NaPi-IIb-expressing CHO cells. It is filed as cell-based. The procedure, abridged: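 Stable human NaPi-IIb CHO line (G418-selected), plated and cultured overnight; ³³PO4 added in buffer A and uptake run at room temperature. Cells washed with ice-cold buffer A, then uptake counted by liquid scintillation.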

Where [1] appears, read: read-out: IC50 against 33PO4 uptake into human NaPi-IIb-expressing cells.

Here are results for 25 molecules from patent US9499553B2 (CHUGAI SEIYAKU KABUSHIKI KAISHA, priority 2013, dated 2016).

Read-outs that look alike come from different tables or passages of the source.

By IC50 is commonly meant the midpoint of a concentration-inhibition curve. Turning to `CN1N(Cc2ccc(OCCOCCNCC(O)CO)c(F)c2F)C(=O)C(C(=O)Nc2ccc(C(F)(F)F)cc2-c2cc(C(F)(F)F)ncn2)=C(O)C12CCCC2` (stereo not shown) [Example 419, 7-[[4-[2-[2-(2,3-Dihydroxypropylamino)ethoxy]ethoxy]-2,3-difluorophenyl]methyl]-10-hydroxy-6-methyl-8-oxo-N-[4-(trifluoromethyl)-2-[6-(trifluoromethyl)pyrimidin-4-yl]phenyl]-6,7-diazaspiro[4.5]dec-9-ene-9-carboxamide], under setting [1], the IC50 was found to be 24.8 µM. `COc1cc(-c2cc(C(F)(F)F)ccc2NC(=O)C2=C(O)C(C)(C)N(C)N(Cc3cccc(F)c3F)C2=O)cnc1C#N` [Example 302]: the IC50 (read-out: IC50) came to 7.8 µM. With `C[C@@H]1COC[C@H](C)N1CCOc1ccc(CN2C(=O)C(C(=O)Nc3ccc(C(F)(F)F)cc3-c3cc(C(F)(F)F)ncn3)=C(O)C3(CCCC3)N2C)c(F)c1F` [Example 370], under setting [1], the IC50 amounted to 18.2 µM. On the same count and under the same terms, with `CN1N(Cc2ccc(OCCCCCOC[C@H](O)CO)c(F)c2F)C(=O)C(C(=O)Nc2ccc(C(F)(F)F)cc2-c2cc(C(F)(F)F)ncn2)=C(O)C12CCCC2` [Example 394] the figure was 6.7 µM. In the case of `CSc1ccc(-c2cc(C(F)(F)F)ccc2NC(=O)C2=C(O)[C@@]3(C)CCCN3N(Cc3ccc(CCCCCCC(=O)O)c(F)c3F)C2=O)cn1` [Example 115, 7-[4-[[(4aR)-4-Hydroxy-4a-methyl-3-[[2-(6-methylsulfanylpyridin-3-v1)-4-(trifluoromethyl)phenyl]carbamoyl]-2-oxo-6,7-dihydro-5H-pyrrolo[1,2-b]pyridazin-1-yl]methyl]-2,3-difluorophenyl]heptanoate], the IC50 (read-out: IC50) was 6.9 µM.

Consider `COc1cccc(-c2cc(C(F)(F)F)ccc2NC(=O)C2=C(O)[C@@]3(C)CCCN3N(Cc3ccc(C#CCOCCO)c(F)c3F)C2=O)c1OC` [Example 137], for which, for the setting “read-out: IC50”, the IC50 turned out to be 19.7 µM. Turning to `C[C@]12CCCN1N(Cc1c(F)cc(CCCCCCCOC[C@H](O)[C@@H](O)CO)cc1F)C(=O)C(C(=O)Nc1ccc(C(F)(F)F)cc1-c1ccc(C(F)(F)F)nc1)=C2O` [Example 125], where the note is “read-out: IC50”, the IC50 was determined as 1.3 µM. For `C[C@]12CCCN1N(Cc1cccc(Cl)c1F)C(=O)C(C(=O)Nc1ccc(C(F)(F)F)cc1-c1ccc(C(F)(F)F)nc1)=C2O` [Example 198], the IC50 (read-out: IC50) worked out at 2.4 µM. Same read-out and setting: with `C[C@]12CCCN1N(Cc1ccc(OCCN3CCOCC3)c(F)c1F)C(=O)C(C(=O)Nc1ccc(Cl)cc1-c1ccc(C(F)(F)F)nc1)=C2O` [Example 102] the figure was 10.9 µM. On the same count and under the same terms, the value for `C[C@]12CCCN1N(Cc1cccc(F)c1F)C(=O)C(C(=O)Nc1ccc(C(F)(F)F)cc1-c1cc(Cl)cnc1Cl)=C2O` [Example 84] was 7.9 µM; that for `CN1N(Cc2cccc(F)c2F)C(=O)C(C(=O)Nc2ccc(C(F)(F)F)cc2-c2ncnc(C#N)c2Cl)=C(O)C1(C)C` [Example 312] was 6.3 µM.

`CN1N(Cc2ccc(NCCCN3CCOCC3)c(F)c2F)C(=O)C(C(=O)Nc2ccc(C(F)(F)F)cc2-c2cc(C(F)(F)F)ncn2)=C(O)C12CCCC2` [Example 446]: the IC50 under setting [1] worked out at 11.1 µM. The same measure, in the same setting: with `COCCOCCOc1ccc(CN2C(=O)C(C(=O)Nc3ccc(C(F)(F)F)cc3-c3cc(C(F)(F)F)ncn3)=C(O)C3(CCC3)N2C)c(F)c1F` [Example 401, 6-[[2,3-Difluoro-4-[2-(2-methoxyethoxy)ethoxy]phenyl]methyl]-9-hydroxy-5-methyl-7-oxo-N-[4-(trifluoromethyl)-2-[6-(trifluoromethyl)pyrimidin-4-yl]phenyl]-5,6-diazaspiro[3.5]non-8-ene-8-carboxamide] the figure was 14.5 µM.

With `CN1N(Cc2ccc(OCCN3CCOCC3)c(F)c2F)C(=O)C(C(=O)Nc2ccc(Cl)cc2-c2cc(C(F)(F)F)ncn2)=C(O)C12CCCC2` [Example 286], the IC50 (read-out: IC50) was 15.8 µM.

Regarding `C[C@]12CCCN1N(Cc1ccc(F)cc1)C(=O)C(C(=O)Nc1ccc(C(F)(F)F)cc1-c1ccc(C(F)(F)F)nc1)=C2O` [Example 199], the IC50 (read-out: IC50) is 1.8 µM. Same read-out and setting: the value for `COC(=O)c1cc(F)c(CN2C(=O)C(C(=O)Nc3ccc(C(F)(F)F)cc3-c3ccc(C(F)(F)F)nc3)=C(O)[C@@]3(C)CCCN23)c(F)c1` [Example 165, Methyl 4-[[(4aR)-4-Hydroxy-4a-methyl-2-oxo-3-[[4-(trifluoromethyl)-2-[6-(trifluoromethyl)pyridin-3-yl]phenyl]carbamoyl]-6,7-dihydro-5H-pyrrolo[1,2-b]pyridazin-1-yl]methyl]-3,5-difluorobenzoate] was 1.8 µM. With `COCCN1CCN(CCOc2ccc(CN3C(=O)C(C(=O)Nc4ccc(C(F)(F)F)cc4-c4cc(C(F)(F)F)ncn4)=C(O)C4(CCCC4)N3C)c(F)c2F)CC1` [Example 377], under setting [1], the IC50 turned out to be 8.7 µM.

On to `CN1N(Cc2ccc(C#CCN3CCOCC3)c(F)c2F)C(=O)C(C(=O)Nc2ccc(Cl)cc2-c2cc(C(F)(F)F)ncn2)=C(O)C1(C)C` [Example 316], for which the IC50 (read-out: IC50) worked out at 14.2 µM. On to `CN1N(Cc2ccc(OCCCCOC[C@H](O)CO)c(F)c2F)C(=O)C(C(=O)Nc2ccc(C(F)(F)F)cc2-c2cc(C(F)(F)F)ncn2)=C(O)C12CCCC2` [Example 393], for which, under setting [1], the IC50 came to 8.1 µM. Still for that read-out and setting: with `CN(CCOc1ccc(CN2C(=O)C(C(=O)Nc3ccc(C(F)(F)F)cc3-c3cc(C(F)(F)F)ncn3)=C(O)C3(CCCC3)N2C)c(F)c1F)C1COC1` [Example 412, 7-(2,3-Difluoro-4-(2-(methyl(oxetan-3-yl)amino)ethoxy)benzyl)-10-hydroxy-6-methyl-8-oxo-N-(4-(trifluoromethyl)-2-(6-(trifluoromethyl)pyrimidin-4-yl)phenyl)-6,7-diazaspiro[4.5]dec-9-ene-9-carboxamide] the figure was 19 µM.

In the case of `COc1cc(C)c(-c2cc(C(F)(F)F)ccc2NC(=O)C2=C(O)[C@@]3(C)CCCN3N(Cc3cccc(F)c3F)C2=O)cn1` [Example 80], where the note is “read-out: IC50”, the IC50 was determined as 12.5 µM. `C[C@]12CCCN1N(Cc1cccc(F)c1)C(=O)C(C(=O)Nc1ccc(C(F)(F)F)cc1-c1ccc(C(F)(F)F)nc1)=C2O` [Example 206]: the IC50 (read-out: IC50) came to 2 µM. Consider `C[C@]12CCCN1N(CCCC(F)(F)F)C(=O)C(C(=O)Nc1ccc(C(F)(F)F)cc1-c1cc(C(F)(F)F)ncn1)=C2O` [Example 234], for which, for the setting “read-out: IC50”, the IC50 was 9.4 µM. On to `COCCN1CC[C@@H](Oc2ccc(CN3C(=O)C(C(=O)Nc4ccc(C(F)(F)F)cc4-c4cc(C(F)(F)F)ncn4)=C(O)C4(CCC4)N3C)c(F)c2F)C1` [Example 405, 6-[[2,3-Difluoro-4-[(3R)-1-(2-methoxyethyl)pyrrolidin-3-yl]oxyphenyl]methyl]-9-hydroxy-5-methyl-7-oxo-N-[4-(trifluoromethyl)-2-[6-(trifluoromethyl)pyrimidin-4-yl]phenyl]-5,6-diazaspiro[3.5]non-8-ene-8-carboxamide], for which, under setting [1], the IC50 was 27.7 µM. For the molecule `COCCN1CCC[C@H]1COc1ccc(CN2C(=O)C(C(=O)Nc3ccc(C(F)(F)F)cc3-c3cc(C(F)(F)F)ncn3)=C(O)C3(CCC3)N2C)c(F)c1F` [Example 404, 6-[[2,3-Difluoro-4-[[(2S)-1-(2-methoxyethyl)pyrrolidin-2-yl]methoxy]phenyl]methyl]-9-hydroxy-5-methyl-7-oxo-N-[4-(trifluoromethyl)-2-[6-(trifluoromethyl)pyrimidin-4-yl]phenyl]-5,6-diazaspiro[3.5]non-8-ene-8-carboxamide], the IC50 under setting [1] is 10.1 µM.
